Key:
[1] = Plasma C-peptide and blood glucose levels during 3 h i.v. C-peptide infusion (Example 1); assay type: in vivo; conditions: both sexes, human, iv, during the C-peptide infusion, 6 pico mole per kg per minute i.v. for 180 minutes, 0.11±0.02 nmol/l before the study
Excerpt: In this study 12 IDDM patients (six male and six female) with autonomic neuropathy participated in two different sessions in a randomized, double-blind study (one patient attended one time only). Their mean age was 40 and mean duration of diabetes was 21 years. In eight patients the fasting plasma C-peptide levels were below the detection limit (<0.10 nmol/l), the remaining four varied between 0.13 and 0.25 nmol/l. Eleven patients had decreased heart rate variability during deep breathing as evidence of autonomic neuropathy. On each occasion they received insulin i.v. for 9–12 hours before the study and blood glucose levels were tested every 1–2 hours during the night. The insulin infusion was adjusted to achieve euglycaemia (5–6 mmol/l). The patients were then given either saline or C-peptide i.v. for 180 minutes. 6 pico mole per kg per minute was administered.

patients with IDDM = assay: QTc interval during 3 h C-peptide infusion, randomised double blind study (Example 3); assay type: in vivo, human; conditions: infused for 3 hours; NaCl placebo; FIG. 4
Protocol: Twelve patients were investigated twice in a randomised double blind study where C-peptide or a NaCl placebo were infused for 3 hours. The same procedure as described in Example 1 was followed.

IDDM patients = assay: QTc interval after 3 months of s.c. C-peptide, randomised cross over study (Example 2); assay type: in vivo, human; conditions: 6 patients with prolonged QTc interval at the outset (>420 ms), 600 nmol per 24 h s.c. in 3 doses
Protocol: In a further study (different results from which were published in Diabetic Medicine, Vol. 17 (2000) p. 181–189, Johannson, Bo-Lennart et al.) 21 IDDM patients were monitored for 6 months according to a randomised cross over regimen wherein C-peptide was administered for 3 months and a placebo.
Further details of the study can be found in the above referenced paper in Diabetic Medicine but in summary, biosynthetic human C-peptide (Eli Lilly Co.) or a placebo comprising just the C-peptide solvent was injected sub-cutaneously 3 times per day. The total 24 h dose of C-peptide was 600 nmol (225 nmol 30 mins before breakfast, 150 nmol before dinner and 225 nmol at bedtime).
ECGs were recorded at the start of the programme and after 3 and then 6 months of the study. These recordings were then used to measure the QTc interval as described in Example 1.

[2] = system: IDDM patients with autonomic neuropathy; assay: QTc interval during 3 h i.v. C-peptide infusion, randomized double-blind study (Example 1); assay type: in vivo, human; conditions: during three hours of C-peptide i.v., 6 pico mole per kg per minute; basal QTc 0.429±0.004s; decreased significantly, p<0.05
Protocol: The QTc interval will vary from patient to patient but can generally be considered prolonged when it exceeds 420 ms in men and 430 ms in women. QTc is the corrected (for heart rate influence) QT interval. It is calculated according to Bazett's formula (QTc=QT/√{square root over (R)}R). QT and RR are conveniently measured using a ruler on an ECG tracing; the QT interval is measured from the beginning of the QRS complex to the end of the crossing of the isoelectric line of the T wave, see the stylised representation in FIG. 1. Any reduction in the interval can be beneficial to the patient, preferably the interval will be reduced by at least 3 ms, more preferably treatment will reduce the QTc interval by at least 5 ms, particularly preferably at least 8 ms even at least 10 ms. […]
Before and during the three hour session a complete 12 lead electrocardiogram was recorded to evaluate heart rate variability during deep breathing. […] The […] (one patient could not take part in a second session and one patient's ECG tracing was not possible to evaluate) were analyzed blindly by two persons. The RR and QT interval were measured with a ruler. […] Five intervals from the precordial leads and five intervals from the extremity leads were measured on each occasion and a mean was calculated. […]

## CC(C)C[C@H](NC(=O)[C@H](C)NC(=O)[C@H](CC(C)C)NC(=O)[C@@H]1CCCN1C(=O)[C@H](CCC(N)=O)NC(=O)[C@H](CC(C)C)NC(=O)[C@H](CO)NC(=O)CNC(=O)[C@H](C)NC(=O)CNC(=O)[C@@H]1CCCN1C(=O)CNC(=O)CNC(=O)CNC(=O)[C@H](CC(C)C)NC(=O)[C@H](CCC(=O)O)NC(=O)[C@@H](NC(=O)[C@H](CCC(N)=O)NC(=O)CNC(=O)[C@@H](NC(=O)[C@H](CCC(N)=O)NC(=O)[C@H](CC(C)C)NC(=O)[C@H](CC(=O)O)NC(=O)[C@H](CCC(=O)O)NC(=O)[C@H](C)NC(=O)[C@@H](N)CCC(=O)O)C(C)C)C(C)C)C(=O)N[C@@H](CCC(=O)O)C(=O)NCC(=O)N[C@@H](CO)C(=O)N[C@@H](CC(C)C)C(=O)N[C@@H](CCC(N)=O)C(=O)O [C-peptide]
[1]
  level at time molar: 1.73 ± 0.04 nM
Patients with IDDM
  QTc interval during C-peptide treatment compared to placebo: decrease in QTc interval
IDDM patients
  QTc interval, C-peptide phase compared to placebo phase: clear shortening of the QTc interval
[2]
  mean QTc interval: 0.422 ± 0.006 s

Source: US7214659B2, “Reduction of the electrocardiographic QT interval” (Creative Peptides Sweden AB, priority 2000, dated 2007)
